US7741344B2, “Process for preparing purified S-BEL and R-BEL and compositions thereof” (Washington University in St. Louis, priority 2002, dated 2010)
Like-named read-outs stand apart in the source and are kept apart here.

Experiments:
[1] = biological target: T1, α-chymotrypsin (Bos taurus, UniProt P00766); experiment: Inhibition of α-chymotrypsin by BEL; type: biochemical; conditions: 2 μM chymotrypsin, up to 5-fold molar excess of inhibitor, 5 min 22° C., then 1000-fold dilution with 100 mM hydrazine; FIG. 3
T1 construct: purchased Sigma
Description: Inhibition of α-Chymotrypsin by BEL—The kinetics of α-chymotrrpsin inactivation by (R)-, (S)-, and rac-BEL were performed similar to methods previously described (36). The concentration of α-chymotrypsin (MW=25,000) was determined using an A^1%=20 (1 cm pathlength) at 280 nm (37). Briefly, one milliliter of α-chymotrypsin (2 μM) was incubated with up to a 5-fold molar excess of (R)-,(S)-, or rac-BEL dissolved in acetonitrile or vehicle alone for 5 mm at 22° C. in 0.1 M sodium phosphate buffer, pH 7.2. […] Following incubation at 22° C. for 1 hr, chymotrypsin activity in each diluted sample was measured utilizing a SPECTRAmax GeminiXS microplate spectrofluorometer with N-succinyl-Ala-Ala-Pro-Phe-7-amidomethylcoumarin (50 μM) as substrate for 1 mm at 25° C. Excitation and emission wavelengths were 380 nm and 460 nm, respectively.
Chymotrypsin (2 μM) in 0.1 M sodium phosphate buffer, pH 7.2 was incubated with the indicated concentrations of racemic, (R)-, or (S)-BEL for 5 mm. This solution was then diluted 1000-fold in 0.1 M sodium phosphate buffer, pH 7.2 containing 100 mM hydrazine and incubated for 1 hr at 22° C. Chymotrypsin proteolytic activity was measured spectrofluorometrically using N-succinyl-Ala-Ala-Pro-Phe-7-amido-4-methylcoumarin (50 μM) as substrate.

[2] = system: cytosolic phosphatidate phosphohydrolase (PAP-1); experiment: Cytosolic phosphatidate phosphohydrolase activity of A-10 cell cytosol fraction; type: biochemical, rat; conditions: concentrations up to 200 μM BEL; FIG. 6A
Description: (§1) Measurement of Cytosolic and Membrane-bound Phosphatidate Phosphohydrolase Activities—A-10 cells were grown to confluency, washed twice in ice-cold phosphate-buffered saline, and harvested in lysis buffer (50 mM Tris-HCl, pH 7.4 containing 0.25 M sucrose and 0.2 mM DTT). After brief sonication utilizing a Vibra-Cell VC4O sonicator (5×1 s pulses at 30% power), the lysed cell suspension was centrifuged at 100,000×g for 1 hr to separate cytosolic and membrane fractions. In some tests, A-10 cells were washed and pretreated with BEL or ethanol vehicle (as described above for tests examining [^3H]-AA liberation) before isolation of cell homogenates. […] Reactions were terminated with 900 μL of 5% acetic acid and extracted into chloroform by the method of Bligh and Dyer (38) prior to separating dipaliitoyl glycerol by TLC utilizing chloroform: methanol: water (65:35:2) as the mobile phase prior to quantification by scintillation spectrometry.
(§2) A-10 cells plated on 100 mm dishes were washed 2× in ice-cold PBS and harvested in lysis buffer (50 mM Tris-HCl, pH 7.4 containing 0.25 M sucrose and 0.2 mM DTT). […] In panel B, intact A-10 cells were washed and pretreated with BEL or ethanol vehicle (as described in FIG. 5) before isolation of the cell homogenate and quantification of phosphatidate phosphohydrolase activity as described above. […]

[3] = system: membrane-bound phosphatidate phosphohydrolase (PAP-2); experiment: Membrane-bound phosphatidate phosphohydrolase activity of A-10 cell membrane fraction; type: biochemical, rat; conditions: concentrations up to 200 μM BEL; FIG. 6A
Description: as §1, §2

[4] = system: phosphatidate phosphohydrolase in A-10 cells; experiment: Total phosphatidate phosphohydrolase activity in homogenates of intact A-10 cells pretreated with BEL; type: cell-based, rat; conditions: intact A-10 cells exposed to up to 100 μM; FIG. 6B
Description: as §1, §2

[5] = system: A-10 smooth muscle cells; conditions: prior studies (10, 29), cited from earlier work
[6] = system: iPLA2 vs. cPLA2 and SPLA2 family members; conditions: (31, 32); cited from earlier work
[7] = system: magnesium-dependent cytozoic phosphatidate phosphohydrolase, PAP-1; conditions: 25 μM BEL; (33, 34); cited from earlier work
[8] = system: PAP-1 in mouse P388D1 macrophages; conditions: ≈25 μM; (33); cited from earlier work
[9] = system: PAP-1 in human amnionic WISH cells; conditions: ≈25 μM; (34); cited from earlier work
[10] = system: cytosolic PAP-1 in McA-RH7777 rat hepatoma cells; conditions: 100 μM BEL; (17); cited from earlier work
[11] = system: A-10 cells; conditions: cited from earlier work

Compound: O=C1O/C(=C/Br)CC[C@@H]1c1cccc2ccccc12 [(R)-BEL, (R)(E)-6-(bromomethylene)-3-(1-naphthalenyl)-2H-tetrahydropyran-2-one]
- inhibition of chymotrypsin [1]: stoichiometrically and irreversibly inhibited

Compound: O=C1OC(=CBr)CCC1c1cccc2ccccc12 (racemic) [rac-BEL, Racemic (E)-6-(bromomethylene)-3-(1-naphthalenyl)-2H-tetrahydropyran-2-one]
- effect on cytosolic (PAP-1) phosphatidate phosphohydrolase [2]: lack of any effect
- effect on membrane-bound (PAP-2) phosphatidate phosphohydrolase [3]: lack of any effect
- total phosphatidate phosphohydrolase activity in comparison to ethanol-treated controls [4]: did not inhibit
- inhibition of AVP-inducible arachidonic acid release ([5]; 2 μM BEL pretreatment): ≈ 60%
- inhibition of AVP-inducible arachidonic acid release ([5]; 5 μM BEL pretreatment): ~80%
- selectivity iPLA2 vs. cPLA2 and SPLA2 family members [6]: 1000 fold
- inhibition of PAP-1 [7]: partially inhibit
- inhibition of PAP-1 in mouse P388D1 macrophages [8]: effectively inhibit
- inhibition of PAP-1 in human amnionic WISH cells [9]: effectively inhibit
- inhibition of cytosolic PAP-1 activity in McA-RH7777 cells [10]: not significantly inhibited
- release of IP2 or IP3 in A-10 cells [11]: does not inhibit
